# Assay results from ChEMBL document CHEMBL1201862, “PubChem BioAssay data set” (2004).
#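 All cell lines were grown in 96-well plates and treated with compound for 48 hours. GI50 = concentration required for 50% inhibition of growth.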 Activity calls are given as the source filed them. No stated cut-off is given here; in the data, active = GI50 up to about 1.1 µM and inactive = higher.
# Key:
# Test in all cases: NCI anticancer screen, dose series, 48 h
# MDA-N = system: MDA-N
# SK-MEL-5 = system: SK-MEL-5
# A549 = system: A549
# COLO 205 = system: COLO 205
# MDA-MB-231 = system: MDA-MB-231
# 786-0 = system: 786-0
# RXF 393 = system: RXF 393
# DU-145 = system: DU-145
# HCC 2998 = system: HCC 2998
# M14 = system: M14
# Malme-3M = system: Malme-3M
# KM12 = system: KM12
# U-251 = system: U-251
# NCI-H460 = system: NCI-H460
# UACC-62 = system: UACC-62
# MCF7 = system: MCF7
# SN12C = system: SN12C
# ACHN = system: ACHN
# IGROV-1 = system: IGROV-1
# RPMI-8226 = system: RPMI-8226
SMILES,GI50 (MDA-N),GI50 (SK-MEL-5),GI50 (A549),GI50 (COLO 205),GI50 (MDA-MB-231),GI50 (786-0),GI50 (RXF 393),GI50 (DU-145),GI50 (HCC 2998),GI50 (M14),GI50 (Malme-3M),GI50 (KM12),GI50 (U-251),GI50 (NCI-H460),GI50 (UACC-62),GI50 (MCF7),GI50 (SN12C),GI50 (ACHN),GI50 (IGROV-1),GI50 (RPMI-8226)
CC[C@@]12C=CC(=S)N(CCSc3ccccc3)[C@@H]1c1c(n(S(=O)(=O)c3ccc(OC)cc3)c3ccccc13)CC2,> 100 µM (inactive),> 100 µM (inactive),> 100 µM (inactive),> 100 µM (inactive),> 100 µM (inactive),> 100 µM (inactive),16.6 µM (inactive),> 100 µM (inactive),> 100 µM (inactive),> 100 µM (inactive),> 100 µM (inactive),> 100 µM (inactive),> 100 µM (inactive),> 100 µM (inactive),> 100 µM (inactive),> 100 µM (inactive),> 100 µM (inactive),–,–,–
COC(=O)[C@@H](NS(=O)(=O)CC12CCC(CC1)C2(C)C)C(C)(C)C,> 100 µM (inactive),> 100 µM (inactive),> 100 µM (inactive),> 100 µM (inactive),> 100 µM (inactive),> 100 µM (inactive),44.4 µM (inactive),> 100 µM (inactive),> 100 µM (inactive),> 100 µM (inactive),> 100 µM (inactive),> 100 µM (inactive),> 100 µM (inactive),> 100 µM (inactive),> 100 µM (inactive),> 100 µM (inactive),> 100 µM (inactive),> 100 µM (inactive),> 100 µM (inactive),–
Cc1cccc(C)c1NC(=S)NC=C1C(=O)c2ccccc2C1=O,9.14 µM (inactive),7.91 µM (inactive),6.78 µM (inactive),3.52 µM (inactive),19.5 µM (inactive),13.1 µM (inactive),4.3 µM (inactive),12.1 µM (inactive),5.86 µM (inactive),17.5 µM (inactive),–,2.83 µM (inactive),3.09 µM (inactive),3.98 µM (inactive),5.24 µM (inactive),4.59 µM (inactive),9.42 µM (inactive),5.19 µM (inactive),6.95 µM (inactive),3.07 µM (inactive)
NC(=O)CCC(CCC(N)=O)(CCC(N)=O)[N+](=O)[O-],> 100 µM (inactive),> 100 µM (inactive),> 100 µM (inactive),> 100 µM (inactive),> 100 µM (inactive),> 100 µM (inactive),> 100 µM (inactive),> 100 µM (inactive),–,> 100 µM (inactive),> 100 µM (inactive),> 100 µM (inactive),> 100 µM (inactive),> 100 µM (inactive),> 100 µM (inactive),> 100 µM (inactive),> 100 µM (inactive),> 100 µM (inactive),> 100 µM (inactive),> 100 µM (inactive)
COC(=O)[C@]12CC[C@H]3CC[C@H]([C@H]31)[C@H](c1ccccc1)N2,17.9 µM (inactive),14.7 µM (inactive),17.7 µM (inactive),16.5 µM (inactive),16.3 µM (inactive),15.7 µM (inactive),14.2 µM (inactive),18.5 µM (inactive),13.5 µM (inactive),17.9 µM (inactive),–,18.5 µM (inactive),17 µM (inactive),15.9 µM (inactive),14.4 µM (inactive),16 µM (inactive),15.7 µM (inactive),17.6 µM (inactive),17 µM (inactive),14.2 µM (inactive)
Cc1cc(-c2nc3ccccc3s2)ccc1NC(=O)[C@@H](N)CCCCN,5.04 µM (inactive),13.9 µM (inactive),6.14 µM (inactive),12.4 µM (inactive),9.04 µM (inactive),5.96 µM (inactive),3.89 µM (inactive),12.5 µM (inactive),6.31 µM (inactive),2.47 µM (inactive),18.2 µM (inactive),2.82 µM (inactive),4.59 µM (inactive),2.22 µM (inactive),13.8 µM (inactive),< 0.0301 µM (active),16.8 µM (inactive),14.7 µM (inactive),1.69 µM (inactive),–
Cc1ccc(NC(=O)/C(=N\NC(N)=O)c2c(O)c3ccccc3[nH]c2=O)cc1,> 100 µM (inactive),> 100 µM (inactive),> 100 µM (inactive),> 100 µM (inactive),> 100 µM (inactive),> 100 µM (inactive),> 100 µM (inactive),> 100 µM (inactive),> 100 µM (inactive),> 100 µM (inactive),–,> 100 µM (inactive),> 100 µM (inactive),> 100 µM (inactive),> 100 µM (inactive),> 100 µM (inactive),> 100 µM (inactive),> 100 µM (inactive),–,> 100 µM (inactive)
CC(C)OP(=O)(CN(C)/C(F)=N\C(F)(F)F)OC(C)C,> 100 µM (inactive),> 100 µM (inactive),> 100 µM (inactive),> 100 µM (inactive),> 100 µM (inactive),> 100 µM (inactive),> 100 µM (inactive),> 100 µM (inactive),> 100 µM (inactive),> 100 µM (inactive),> 100 µM (inactive),> 100 µM (inactive),> 100 µM (inactive),> 100 µM (inactive),> 100 µM (inactive),> 100 µM (inactive),> 100 µM (inactive),> 100 µM (inactive),> 100 µM (inactive),–
CCOC(=O)N/N=C(/N)c1cccc(Br)c1,> 100 µM (inactive),> 100 µM (inactive),> 100 µM (inactive),> 100 µM (inactive),> 100 µM (inactive),> 100 µM (inactive),> 100 µM (inactive),> 100 µM (inactive),> 100 µM (inactive),> 100 µM (inactive),> 100 µM (inactive),> 100 µM (inactive),–,> 100 µM (inactive),> 100 µM (inactive),> 100 µM (inactive),> 100 µM (inactive),> 100 µM (inactive),> 100 µM (inactive),–
COc1ccc2c(c1)CCCN1Cc3ccccc3CC21 (stereo not given),38.2 µM (inactive),22.5 µM (inactive),> 100 µM (inactive),40.7 µM (inactive),91.4 µM (inactive),99.1 µM (inactive),48.3 µM (inactive),> 100 µM (inactive),19.1 µM (inactive),39.5 µM (inactive),41.9 µM (inactive),65 µM (inactive),75.2 µM (inactive),76 µM (inactive),91.6 µM (inactive),> 100 µM (inactive),64.1 µM (inactive),> 100 µM (inactive),49.4 µM (inactive),–
COc1cc(C)cc(C(=O)/C=C/c2ccccc2)c1O,23.7 µM (inactive),19.8 µM (inactive),30.3 µM (inactive),20 µM (inactive),22.5 µM (inactive),17.8 µM (inactive),16.3 µM (inactive),14.1 µM (inactive),18.8 µM (inactive),16.6 µM (inactive),–,18.5 µM (inactive),17.2 µM (inactive),20.2 µM (inactive),17.1 µM (inactive),12.1 µM (inactive),16.9 µM (inactive),18.3 µM (inactive),12.6 µM (inactive),21.2 µM (inactive)
